# The source made the active and inactive calls.
# Key:
# [1] = biological target: T1, Low molecular weight phosphotyrosine protein phosphatase (Homo sapiens, UniProt P24666); type: functional; conditions: read-out: IC50_Mean;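 also: Dose-response confirmation assay measuring inhibition of LMPTP enzyme activity by fluorescence intensity read-out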
# T1 sequence (P24666 whole entry): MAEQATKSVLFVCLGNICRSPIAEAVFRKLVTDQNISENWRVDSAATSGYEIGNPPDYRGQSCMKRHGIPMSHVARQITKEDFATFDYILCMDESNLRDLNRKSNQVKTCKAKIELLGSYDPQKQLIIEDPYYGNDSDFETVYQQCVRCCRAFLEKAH
# [2] = cytotoxicity in HEK-293T cells, dose response, cytotoxicity control for BCR NF-kB inhibitor project, luminescence, B-cell screen hits (AID 489021); type: functional, cell-based;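 also: HEK-293T cells carrying an NF-kB luciferase reporter; cells exposed to compound for about 14 hours before viability readout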
# [3] = biological target: T2, Short transient receptor potential channel 4 (Mus musculus, UniProt Q9QUQ5); assay: mouse TRPC4 channel inhibitors, dose response, cell-based, HEK293 TRPC4/mu-opioid, Fluo-4 calcium (AID 434942); type: functional;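 also: potency of inhibitors blocking the TRPC4 calcium response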
# T2 sequence (Q9QUQ5 whole entry): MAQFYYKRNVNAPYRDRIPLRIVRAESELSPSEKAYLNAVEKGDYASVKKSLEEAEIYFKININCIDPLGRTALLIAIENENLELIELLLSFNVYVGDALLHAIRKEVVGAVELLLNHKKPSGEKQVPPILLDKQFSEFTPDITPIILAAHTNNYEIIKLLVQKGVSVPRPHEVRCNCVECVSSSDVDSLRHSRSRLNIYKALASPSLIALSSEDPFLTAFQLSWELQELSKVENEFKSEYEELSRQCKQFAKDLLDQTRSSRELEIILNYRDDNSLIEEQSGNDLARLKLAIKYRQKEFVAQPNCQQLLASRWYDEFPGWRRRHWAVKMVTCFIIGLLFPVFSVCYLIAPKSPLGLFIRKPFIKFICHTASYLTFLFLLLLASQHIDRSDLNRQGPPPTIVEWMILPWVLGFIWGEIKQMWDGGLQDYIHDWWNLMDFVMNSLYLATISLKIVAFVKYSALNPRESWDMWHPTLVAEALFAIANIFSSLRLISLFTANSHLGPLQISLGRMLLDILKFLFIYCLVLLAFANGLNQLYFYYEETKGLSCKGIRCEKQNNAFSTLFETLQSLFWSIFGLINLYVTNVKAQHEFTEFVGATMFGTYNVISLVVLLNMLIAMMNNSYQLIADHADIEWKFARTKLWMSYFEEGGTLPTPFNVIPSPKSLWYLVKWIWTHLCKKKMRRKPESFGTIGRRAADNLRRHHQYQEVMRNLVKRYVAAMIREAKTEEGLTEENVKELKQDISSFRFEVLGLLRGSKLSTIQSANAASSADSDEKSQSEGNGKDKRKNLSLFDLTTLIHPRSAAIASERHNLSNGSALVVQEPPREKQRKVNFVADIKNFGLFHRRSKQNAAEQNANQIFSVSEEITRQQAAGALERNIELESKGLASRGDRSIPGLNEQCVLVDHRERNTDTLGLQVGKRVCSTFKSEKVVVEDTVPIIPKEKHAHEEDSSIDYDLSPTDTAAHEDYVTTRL
# [4] = cytotoxicity toward NIH3T3 fibroblasts, dose response, counter-screen, cell-based, ATP luminescence, mouse fibroblasts (AID 2010); type: functional;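 also: cells exposed to compound for about 90 hours before reading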
# [5] = inhibitors of intracellular T. cruzi replication, confirmation, NIH3T3 host cells, beta-gal luminescence (AID 2044); type: functional, cell-based;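 also: intracellular parasites grown in NIH/3T3 mouse fibroblasts as host cells; luminescent beta-galactosidase reporter signal from transgenic T. cruzi replicating inside host cells; inhibitors lower the luminescence signal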
# BJ [6] = assay: cytotoxicity toward BJ-TERT fibroblasts, dose response, cell-based, RAS-independent, luminescence (AID 1933); type: functional; conditions: Homo sapiens
# INS1 = assay: beta cell apoptosis inhibitors, cytokine rescue, dose response, luminescence, retest (AID 449756); type: functional, cell-based; conditions: Rattus norvegicus;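 also: cell death triggered by IL-1 beta plus TNF-alpha plus IFN-gamma mixture; protective hits raise ATP signal compared with cytokine alone wells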
# [7] = cytotoxicity toward DRD oncogenic fibroblasts, dose response, cell-based, non-viral oncogenic, luminescence (AID 1934); type: functional; conditions: Homo sapiens
# BJ [8] = assay: cytotoxicity toward BJ-TERT-LT-ST fibroblasts, dose response, cell-based, RAS-independent, luminescence (AID 1935); type: functional; conditions: Homo sapiens;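 also: BJ fibroblasts immortalized with TERT plus LT and ST oncogenes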
# BJ [9] = assay: cells; type: functional, cell-based; conditions: Homo sapiens
# [10] = biological target: T3, Histone-lysine N-methyltransferase NSD2 (Homo sapiens, UniProt O96028); type: biochemical
# T3 sequence (O96028 whole entry): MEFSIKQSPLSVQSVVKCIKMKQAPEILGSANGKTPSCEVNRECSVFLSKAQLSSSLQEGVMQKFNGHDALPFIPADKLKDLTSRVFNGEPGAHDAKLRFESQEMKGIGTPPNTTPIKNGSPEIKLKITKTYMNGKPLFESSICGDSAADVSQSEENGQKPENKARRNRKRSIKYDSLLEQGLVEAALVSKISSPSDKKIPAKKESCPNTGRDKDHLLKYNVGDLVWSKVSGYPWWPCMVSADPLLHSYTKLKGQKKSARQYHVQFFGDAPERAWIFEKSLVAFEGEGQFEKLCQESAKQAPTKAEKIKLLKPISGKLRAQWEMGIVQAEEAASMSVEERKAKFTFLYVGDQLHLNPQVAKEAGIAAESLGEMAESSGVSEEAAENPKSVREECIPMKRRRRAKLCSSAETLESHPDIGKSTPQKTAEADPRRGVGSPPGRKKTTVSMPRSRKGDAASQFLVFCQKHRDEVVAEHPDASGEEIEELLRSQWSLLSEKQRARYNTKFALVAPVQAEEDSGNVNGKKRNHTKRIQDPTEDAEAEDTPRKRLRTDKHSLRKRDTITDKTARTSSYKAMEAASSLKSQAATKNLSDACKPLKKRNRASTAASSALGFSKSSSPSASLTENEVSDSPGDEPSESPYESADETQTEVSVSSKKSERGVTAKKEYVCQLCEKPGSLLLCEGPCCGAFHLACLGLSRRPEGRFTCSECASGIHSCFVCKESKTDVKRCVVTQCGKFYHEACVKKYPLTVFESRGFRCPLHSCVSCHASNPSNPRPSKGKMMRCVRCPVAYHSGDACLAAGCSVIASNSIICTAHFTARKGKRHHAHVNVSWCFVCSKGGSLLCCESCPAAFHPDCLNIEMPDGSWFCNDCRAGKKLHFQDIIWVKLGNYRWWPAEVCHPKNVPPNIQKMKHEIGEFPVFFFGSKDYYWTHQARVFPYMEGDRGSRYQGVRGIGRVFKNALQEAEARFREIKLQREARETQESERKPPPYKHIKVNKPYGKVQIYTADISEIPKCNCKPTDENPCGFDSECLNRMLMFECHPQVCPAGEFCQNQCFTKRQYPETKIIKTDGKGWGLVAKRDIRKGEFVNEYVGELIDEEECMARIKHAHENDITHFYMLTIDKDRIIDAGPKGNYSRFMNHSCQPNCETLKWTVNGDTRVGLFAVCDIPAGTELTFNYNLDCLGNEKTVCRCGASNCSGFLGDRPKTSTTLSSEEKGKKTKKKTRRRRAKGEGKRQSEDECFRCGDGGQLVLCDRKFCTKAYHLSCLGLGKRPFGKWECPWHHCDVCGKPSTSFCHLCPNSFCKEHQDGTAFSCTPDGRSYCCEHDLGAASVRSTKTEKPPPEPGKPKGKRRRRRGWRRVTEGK
# [11] = biological target: T4, Corticotropin-releasing factor receptor 2/Corticotropin-releasing factor-binding protein (Homo sapiens, UniProt P24387+Q13324); assay: Dose Response confirmation of uHTS hits for small molecule antagonists of the CRF-binding protein and CRF-R2 receptor complex.; type: functional; conditions: read-out: IC50_Mean
# T4 sequence (Q13324 whole entry): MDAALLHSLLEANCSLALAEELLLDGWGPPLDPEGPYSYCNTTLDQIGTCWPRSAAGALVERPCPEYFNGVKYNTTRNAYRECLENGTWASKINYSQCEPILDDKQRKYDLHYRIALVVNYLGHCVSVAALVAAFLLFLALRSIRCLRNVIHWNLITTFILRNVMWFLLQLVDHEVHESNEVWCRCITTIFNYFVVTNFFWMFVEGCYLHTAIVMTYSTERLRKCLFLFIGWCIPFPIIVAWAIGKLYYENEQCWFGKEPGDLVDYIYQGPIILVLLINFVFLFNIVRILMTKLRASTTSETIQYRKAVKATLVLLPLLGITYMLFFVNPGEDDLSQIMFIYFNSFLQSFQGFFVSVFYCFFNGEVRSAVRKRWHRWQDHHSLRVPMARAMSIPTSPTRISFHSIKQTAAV
# T4 sequence (P24387 whole entry): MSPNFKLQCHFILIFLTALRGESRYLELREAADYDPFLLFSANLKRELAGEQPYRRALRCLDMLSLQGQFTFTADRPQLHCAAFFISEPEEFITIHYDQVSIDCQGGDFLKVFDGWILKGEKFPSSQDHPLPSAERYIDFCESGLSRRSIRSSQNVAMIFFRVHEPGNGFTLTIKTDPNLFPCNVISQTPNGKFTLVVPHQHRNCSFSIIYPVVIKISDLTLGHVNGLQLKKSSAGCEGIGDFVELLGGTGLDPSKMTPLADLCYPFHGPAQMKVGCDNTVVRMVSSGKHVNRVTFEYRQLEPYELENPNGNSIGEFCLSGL
# [12] = biological target: T4, Corticotropin-releasing factor receptor 2/Corticotropin-releasing factor-binding protein; assay: activators of CRF receptor 2 with binding protein – uHTS hits, confirmation (AID 602473); type: functional; conditions: read-out: EC50_Mean
# Nonstructural protein 1 = Nonstructural protein 1 (Influenza A virus, UniProt Q194T2); type: functional, Influenza A virus (A/California/07/2009(H1N1))
# [13] = biological target: T5, Ubiquitin-conjugating enzyme E2 N (Homo sapiens, UniProt P61088); type: functional;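 also: Dose-response confirmation in a TR-FRET assay detecting UBC13-driven polyubiquitin chain formation, inhibition measured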
# T5 sequence (P61088 whole entry): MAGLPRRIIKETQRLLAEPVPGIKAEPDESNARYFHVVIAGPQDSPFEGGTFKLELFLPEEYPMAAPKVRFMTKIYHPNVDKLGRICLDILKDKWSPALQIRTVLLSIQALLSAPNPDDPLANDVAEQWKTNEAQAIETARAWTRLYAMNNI
# Protein Wnt-3a = Protein Wnt-3a (Mus musculus, UniProt P27467); assay: Wnt3a-driven reporter signaling inhibition, dose response, selectivity assay for Gli-SUFU antagonist project, Wnt-LIGHT cells, luminescence (AID 651570); type: functional; conditions: read-out: IC50_Mean;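 also: Wnt-LIGHT reporter cells stimulated with conditioned medium from Wnt3a-producing cells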
# Genome polyprotein = Genome polyprotein (dengue virus type 2, UniProt P29990); assay: Dengue-2 NS5 methyltransferase inhibitors, primary screen, biochemical, confirmation dose response (AID 588689); type: functional
# [14] = control 3'UTR Renilla luciferase suppression, dose response, counter-screen for Shn3 inhibitor project, cell-based, Clone20-Shn3RL, cherry-picked (AID 624133); type: functional
# [15] = Shn3 3'UTR reporter inhibitors, dose response, cell-based, Clone20 osteoblasts, firefly luciferase, cherry-picked (AID 624132); type: functional;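 also: firefly luciferase luminescence from reporter carrying the Shn3 3'UTR in osteoblasts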
# [16] = HepG2 cell cytotoxicity, dose response, cytotoxicity control for Shn3 inhibitor project, CellTiter-Glo, cherry-picked (AID 624134); type: functional, cell-based
# Chain of Nonstructural protein 1 (Q194T2 whole entry): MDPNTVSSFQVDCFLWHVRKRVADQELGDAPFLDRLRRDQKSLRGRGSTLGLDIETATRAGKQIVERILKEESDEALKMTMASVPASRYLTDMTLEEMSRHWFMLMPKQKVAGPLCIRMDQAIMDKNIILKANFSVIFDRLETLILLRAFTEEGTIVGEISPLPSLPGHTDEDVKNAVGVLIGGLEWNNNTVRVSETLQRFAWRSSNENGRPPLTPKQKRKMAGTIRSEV
# Chain of Genome polyprotein (P29990 2492-3391 limits assumed): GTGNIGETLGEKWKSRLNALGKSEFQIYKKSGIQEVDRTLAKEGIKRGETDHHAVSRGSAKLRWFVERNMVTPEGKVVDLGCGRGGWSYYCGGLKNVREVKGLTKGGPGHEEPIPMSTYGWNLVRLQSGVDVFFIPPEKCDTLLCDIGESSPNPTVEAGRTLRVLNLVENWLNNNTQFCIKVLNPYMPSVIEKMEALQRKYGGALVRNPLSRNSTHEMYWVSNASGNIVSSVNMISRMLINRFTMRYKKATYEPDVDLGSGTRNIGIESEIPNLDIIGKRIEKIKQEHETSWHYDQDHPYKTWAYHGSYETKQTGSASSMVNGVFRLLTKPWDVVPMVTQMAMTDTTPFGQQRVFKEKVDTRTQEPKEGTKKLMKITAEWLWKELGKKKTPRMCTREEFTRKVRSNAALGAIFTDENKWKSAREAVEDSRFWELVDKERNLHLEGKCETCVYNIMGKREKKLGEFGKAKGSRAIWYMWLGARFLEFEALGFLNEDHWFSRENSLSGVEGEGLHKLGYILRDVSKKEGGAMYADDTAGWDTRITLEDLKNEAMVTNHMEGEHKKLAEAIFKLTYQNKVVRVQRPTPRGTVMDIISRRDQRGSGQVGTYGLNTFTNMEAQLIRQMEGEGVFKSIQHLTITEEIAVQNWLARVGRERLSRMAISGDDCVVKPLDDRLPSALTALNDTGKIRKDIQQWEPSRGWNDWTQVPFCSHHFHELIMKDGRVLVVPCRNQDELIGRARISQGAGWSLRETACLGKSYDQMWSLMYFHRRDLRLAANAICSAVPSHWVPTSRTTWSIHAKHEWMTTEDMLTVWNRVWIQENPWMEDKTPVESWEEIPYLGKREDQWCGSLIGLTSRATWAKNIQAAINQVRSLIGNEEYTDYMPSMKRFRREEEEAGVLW
# Chain of Protein Wnt-3a (P27467 whole entry): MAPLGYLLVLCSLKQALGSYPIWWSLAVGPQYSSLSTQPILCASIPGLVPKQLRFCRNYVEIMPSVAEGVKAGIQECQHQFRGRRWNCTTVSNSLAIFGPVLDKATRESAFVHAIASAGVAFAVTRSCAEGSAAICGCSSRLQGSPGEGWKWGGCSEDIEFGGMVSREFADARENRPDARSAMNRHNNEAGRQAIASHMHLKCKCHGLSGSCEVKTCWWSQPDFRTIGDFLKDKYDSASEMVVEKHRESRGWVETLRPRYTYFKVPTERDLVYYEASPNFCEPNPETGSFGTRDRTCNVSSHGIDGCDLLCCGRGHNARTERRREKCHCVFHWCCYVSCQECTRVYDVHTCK
compound,measurement,setting,value
Cc1ccc(-n2nc3c(N4CCC(C(=O)NCc5ccc(C)o5)CC4)nnc(C)c3c2C)cc1,IC50,[1],23 µM (inactive)
Cc1nn(-c2ccc(N3CCCCC3)nn2)c(C)c1CCC(=O)Nc1ccccc1F,IC50,[2],> 80 µM (inactive)
Cc1cc(Nc2cccc(O)c2)c2ccccc2n1,EC50,[3],5.31 µM (active)
CN(C)S(=O)(=O)c1ccc(C(=O)OCC(=O)c2ccc3c(c2)NC(=O)CO3)cc1,IC50,[1],29.3 µM (inactive)
COc1ccc(-c2noc(N3CCC(C(=O)Nc4ccc(F)cc4F)CC3)n2)cc1,IC50,[2],> 80 µM (inactive)
Cc1nn(-c2ccccc2)c2nc(C(F)(F)F)cc(O)c12,EC50,[3],6.68 µM (active)
N=c1c2c(n(Cc3ccc(Cl)c(Cl)c3)c3c1CCC3)CCCC2,EC50,[4],> 60 µM (not active)
same,EC50,[5],0.152 µM (active)
same,EC50,BJ [6],11.9 µM (active)
same,AC50,INS1,2.78 µM (active)
same,EC50,[7],28.9 µM (inconclusive)
same,EC50,BJ [8],> 150 µM (not active)
same,IC50,[2],> 80 µM (inactive)
same,EC50,BJ [9],14.1 µM (inconclusive)
N#Cc1c(Cl)nc2c(c1C#N)CCCC2,AC50,[10],11.8 µM (active)
same,IC50,[11],> 47.1 µM (inactive)
same,EC50,[12],> 53 µM (inactive)
Cc1ccc(-c2cc(C(F)(F)F)n3nc(C(=O)N4CCN5CCCC5C4)cc3n2)cc1 (configuration not stated),AC50,[10],16 µM (active)
Cc1nc(CNS(=O)(=O)c2ccc3ccccc3c2)cs1,IC50,[11],> 47.1 µM (inactive)
same,IC50,Nonstructural protein 1,37.7 µM (active)
same,EC50,[12],> 53 µM (inactive)
Cc1ccsc1CNc1ncnc2ccc(-c3c(C)noc3C)cc12,IC50,[13],> 20 µM (inactive)
same,IC50,Protein Wnt-3a,14.8 µM (active)
Cc1ccccc1C(=O)NCC(=O)NNC(=S)NC(=O)c1ccccc1C,IC50,[13],> 20 µM (inactive)
CCN(CC)C(=O)C1CCCN(Cc2cccc(Oc3ccccc3)c2)C1 (configuration not stated),EC50,[3],2.37 µM (active)
O=C(O)c1ccc(NS(=O)(=O)c2ccc3c(c2)C(=O)c2cc(S(=O)(=O)Nc4ccc(C(=O)O)cc4)ccc2-3)cc1,IC50,Genome polyprotein,95.9 µM (active)
CN(C)C(CNC(=O)c1ccccc1OCc1ccc(Cl)cc1)c1ccco1 (configuration not stated),EC50,[3],0.0947 µM (active)
O=C(CN1CC(=O)Oc2ccccc21)OCC(=O)c1ccc(Br)cc1,IC50,Nonstructural protein 1,1.61 µM (active)
CCN(CC(=O)Nc1c(F)cccc1F)C(=O)C1(c2ccccc2)CC1,IC50,[2],> 80 µM (inactive)
Cc1ncc(S(=O)(=O)c2ccc(Cl)cc2)c(N)n1,IC50,[13],> 20 µM (inactive)
C=CCn1c(-c2ccc(S(=O)(=O)N3CCOCC3)cc2)cs/c1=N\c1ccccc1,AC50,[14],5.6 µM (active)
same,AC50,[15],1.52 µM (active)
same,AC50,[16],40 µM (active)
same,IC50,Nonstructural protein 1,> 100 µM (active)
O=C(CCCCCN1C(=O)C2C3C=CC(C3)C2C1=O)Nc1ccc2ncccc2c1 (configuration not stated),AC50,[10],8.81 µM (active)
Cc1n[nH]c(=S)n(/N=C/c2ccccn2)c1=O,IC50,Nonstructural protein 1,6.08 µM (active)
N#C/C(=C\c1cccc(Cl)c1)C(=O)c1ccccc1,IC50,Genome polyprotein,64.1 µM (active)

# From ChEMBL document CHEMBL1201862, “PubChem BioAssay data set” (2004)
